Results: patent US20250340846A1, “PATIENT-DERIVED CELL-CONTAINING DROPLETS ENABLE CLINICAL PRECISION ONCOLOGY” (Xilis, Inc., priority 2022, published 2025)

Legend:
[1] = test system: MOS from metastatic rectal cancer biopsy; assay: High-throughput drug screen on patient-derived MOS, CellTiter-Glo viability; assay type: cell-based, human; conditions: 1 μM, 72 hours, 30 tumor cells per MOS
Protocol: (§1) Drug High-Throughput Screening: Automated liquid handling was provided by the Echo Acoustic Dispenser (Labcyte) for drug administration or Well mate (Thermo Fisher) for cell plating, and assays were performed using a Clariosean plate reader (BMG Labtech). Immediately prior to cell plating, 384 well plates were stamped with 119 FDA-approved drug compounds at a final concentration of 1 μM. The compound library (Approved Oncology Set VI) was provided by the NCI Developmental Therapeutics Program (https://dtp.cancer.gov/). MOS were plated in these drug pre-coated plates at 100 MOS/well with each MOS containing 30 cells/droplet. Cell viabilities were assessed via CellTiter-Glo Luminescent Cell Viability Assay (Promega, USA) 72 hours after cell plating. Percent cytotoxicity was quantified using the following formula: 100*[1-(average CellTiterGlo^drug/average CellTiterGlo^control)].
Since clinical treatment decisions are often made within 10-14 days of diagnosis, an ideal diagnostic assay would give results within 14 days and use minimal tissue (e.g., core biopsies) to predict clinical outcome. In an initial study, a biopsy was obtained from a patient presenting with metastatic rectal cancer, and MOS (30 tumor cells per MOS) were established within 8 days of biopsy. […]

[2] = test system: metastatic CRC patient-derived MOS; assay: Oxaliplatin drug testing of MOS from CRC core biopsies (Cell Titer Glo); assay type: cell-based, human; conditions: 1 μM and 10 μM, cut-off 50% killing
Protocol: as §1
A prospective clinical study was then designed and conducted. Core biopsies (18-gauge) were obtained from seven additional patients presenting with metastatic CRC, MOS were generated, and drug testing was performed (FIGS. 1H and 1I). MOS (30 tumor cells per MOS) were generated and responses to oxaliplatin were tested within 13 days (9.9 days on average) from time of biopsy for all eight biopsy samples, with a success rate of 100% (8/8) (TABLE 2). Given the limited tissue volume, dosages of 1 μM and 10 μM were selected based on studies disclosed elsewhere (Vlachogiannis et al., Science 359, 920-926, 2018, Ooft et al., Science Translational Med 11, 2019; Ganesh et al., Nat Med 25, 1607-1614, 2019; and Yao et al., Trends Immunol 41, 652-664, 2020). The same cut-off as measured via Cell Titer Glo was used. Among the eight patients, four had oxaliplatin-sensitive MOS and four had oxaliplatin-resistant MOS (FIG. 1J).

[3] = test system: metastatic CRC; assay: Clinical outcome of patients on oxaliplatin-based therapy (CT scan, time on treatment); assay type: in vivo, human
Text: All eight patients received oxaliplatin-based therapy per usual treatment guidelines. Patient outcomes were subsequently evaluated by CT scan before and after oxaliplatin treatment (FIGS. 2B-2H), and time-on-treatment was compared to MOS oxaliplatin sensitivity.

[4] = test system: CRC MOS lines resistant to oxaliplatin; assay: Caspase 3/7 fluorescence imaging of oxaliplatin-treated CRC MOS; assay type: cell-based, human; conditions: two oxaliplatin-resistant CRC MOS lines (CRC1282, CRC1297), 20 cells per MOS
Protocol: Cell death for each MOS was measured by imaging the Caspase 3/7 fluorescence signal and normalizing it by the cell surface area inside each MOS.

[5] = test system: MOS generated from NSCLC patient samples; assay: IO assay, Incucyte Annexin V, MOS with tumor-resident immune cells; assay type: cell-based, human; conditions: 10 μg/mL, day 4 MOS, 30 tumor cells per MOS
Protocol: (§2) IO assay and Incucyte live cell imaging: MOS generated from primary tumor tissue were plated into 96-well plates with a density of 30-50 MOS per well supplied with culture medium without Y compound. Day 3 or day 4 MOS were treated with ESK1*, DP47 or Nivolumab for at least 3 days and imaged in Incucyte during the treatment. When performing immune cell potency assay, pre-activated PBMCs or matched TILs were stained with Cytolight Rapid red dye following manufacturer instructions. Briefly, Cytolight Rapid Red dye in one vial was diluted with 20 μl DMSO and further diluted 10-fold in PBS. PBMC or TILs were incubated at 37° C. with 5 μl diluted Cytolight Red dye (500X) in PBS for 25 minutes. After one wash with PBS, PBMC or TILs were counted and resuspended into wells containing MOS and culture medium at an effector: target ratio of 5:1 or 10:1. Annexin V green dye, Caspase 3/7 green dye, or Cytotox green dye was added into each well following manufacturer instruction. Plates were loaded into Incucyte S3 and images were taken every 2 hours for 4-5 days.
(§3) MOS generated from NSCLC patient samples at a density of 30 tumor cells per MOS formed tumorsphere-like structures in the presence of tumor-resident immune cells. MOS (day 4) were then treated with anti-PD1 therapy nivolumab at 10 μg/mL and Annexin V was used to evaluate cell apoptosis. […]

[6] = test system: MOS derived from a kidney cancer patient; assay: IO assay, Incucyte Annexin V, kidney tumor MOS; assay type: cell-based, human; conditions: nivolumab alone, day 3 MOS
Protocol: as §2, §3

[7] = test system: lung tumor MOS; assay: IO assay with immunotherapy and MHC block, matched TILs; assay type: cell-based, human
Protocol: IO assay with immunotherapy and MHC block: Lung tumor MOS were incubated with anti-MHC I/II antibodies (W6/32; Tu39, Cat #361702, Biolegend) at a concentration of 20 μg/mL for 45 minutes at 37° C. before seeding into a 96-well plate at a density of 30-50 MOS per well supplied with lung tumor culture medium without Y-27632. Non-MHC-blocked MOS were used as controls. Matched TILs were added to each well at a 5:1 effector: target ratio. Nivolumab was added to wells at a working concentration of 10 μg/mL. The CD2/CD3/CD28 T cell activator reagent was added at a working concentration of 25 μl/mL. Annexin V was added into each well following the manufacturer's instructions.
Adjunctive therapies were explored by first combining PD-1 blockade (nivolumab) with autologous TILs against matched lung tumor MOS. […] TCB were then combined with autologous TILs or allogeneic PBMCs to treat lung cancer MOS (20 cells per MOS) expressing HLA-A2. ESK1* enhanced both TIL- and PBMC-induced tumor cell death compared to DP47 (FIGS. 11I, 11J, 12J, and 12K). Annexin V signals were higher in MOS treated with ESK1* vs. DP47 in all seven lung cancer samples (FIG. 11K). […] Heterogeneity in drug response between MOS from the same patient was observed and quantified (FIGS. 12K and 12L).

CCc1c2c(nc3ccc(OC(=O)N4CCC(N5CCCCC5)CC4)cc13)-c1cc3c(c(=O)n1C2)COC(=O)[C@]3(O)CC [irinotecan]
% killing [1]: < 50%

O=C1[O][Pt]2([NH][C@@H]3CCCC[C@H]3[NH]2)[O]C1=O [oxaliplatin]
% killing [1]: > 50% | MOS Prediction ([2]; patient CRC-MOS-001): Sensitive | MOS Prediction ([2]; patient CRC-MOS-002): Resistance | MOS Prediction ([2]; patient CRC-MOS-003): Sensitive | MOS Prediction ([2]; patient CRC-MOS-004): Resistance | MOS Prediction ([2]; patient CRC-MOS-005): Sensitive | MOS Prediction ([2]; patient CRC-MOS-006): Resistance | MOS Prediction ([2]; patient CRC-MOS-007): Sensitive | MOS Prediction ([2]; patient CRC-MOS-008): Resistance | patient tumor response to oxaliplatin-based therapy ([3]; metastatic rectal cancer patient, 6 months later): still responded | Clinical Outcome ([3]; patient CRC-MOS-001, oxaliplatin-based therapy): Response | Response Time ([3]; patient CRC-MOS-001, time on oxaliplatin-based treatment): 46 wks | Clinical Outcome ([3]; patient CRC-MOS-002, oxaliplatin-based therapy): Response | Response Time ([3]; patient CRC-MOS-002, time on oxaliplatin-based treatment): 28 wks | Clinical Outcome ([3]; patient CRC-MOS-003, oxaliplatin-based therapy): Response | Response Time ([3]; patient CRC-MOS-003, time on oxaliplatin-based treatment): 38 wks | Clinical Outcome ([3]; patient CRC-MOS-004, oxaliplatin-based therapy): No Response | Response Time ([3]; patient CRC-MOS-004, time on oxaliplatin-based treatment): 8 wks | Clinical Outcome ([3]; patient CRC-MOS-005, oxaliplatin-based therapy): Response | Response Time ([3]; patient CRC-MOS-005, time on oxaliplatin-based treatment): 36 wks | Clinical Outcome ([3]; patient CRC-MOS-006, oxaliplatin-based therapy): No Response | Response Time ([3]; patient CRC-MOS-006, time on oxaliplatin-based treatment): 3 wks | Clinical Outcome ([3]; patient CRC-MOS-007, oxaliplatin-based therapy): No Response | Response Time ([3]; patient CRC-MOS-007, time on oxaliplatin-based treatment): 24 wks | Clinical Outcome ([3]; patient CRC-MOS-008, oxaliplatin-based therapy): No Response | Response Time ([3]; patient CRC-MOS-008, time on oxaliplatin-based treatment): 6 wks | cell killing, Caspase 3/7 signal normalized by cell surface area [4]: only the highest dosages induced significant cell killing

nivolumab
death of tumorspheres within MOS (Annexin V) [5]: induced death in the tumorspheres | killing of tumorspheres inside MOS (Annexin V) [6]: did not enhance killing | TIL-mediated killing inside MOS (Annexin V) ([7]; 10 μg/mL with autologous TILs, effector:target 5:1): enhanced TIL-mediated killing | TIL-mediated killing inside MOS (Annexin V) with MHC block ([7]; anti-MHC I/II antibodies 20 μg/mL, autologous TILs): abrogated
